The subject of the experiment is LARGE protein. Put plainly: Stimulation of the expression of LARGE protein in normal human keratinocytes (immunocytochemical staining). It is filed as cell-based. Conditions: 48 hours, visual staining scale from 1 to 5, untreated keratinocytes 2.03, one donor. On the procedure: The effect of the Resveratrol used in Example 4 on the expression of the LARGE protein was evaluated in cultured keratinocytes. Keratinocytes derived from neonatal foreskin (Invitrogen, CA, USA) were cultivated in 6-well plates containing cover glasses coated with poly-L-ornithine (Sigma, MO) in keratinocyte culture medium with supplement (EpiLife, Invitrogen). After culturing for 24 hours at 37° C., the 40-50% confluent cells were washed with PBS buffer (Invitrogen, CA) and incubated with basal keratinocytes culture medium (EpiLife, Invitrogen) containing the extract to be tested, for 48 hours. The cytotoxicity of the extract was evaluated in human cultured keratinocytes before testing the activity. To quantify the expression of the LARGE protein in a treated sample relative to an untreated sample, immunocytochemical staining (ICC) of cover glasses with cultured keratinocytes was used. Staining was performed in triplicates, with primary goat anti-human LARGE antibodies (Santa Cruz, Calif.) and secondary donkey anti-goat antibodies (Rockland Immunochemicals, PA). The staining was visualized with AEC system (Lab Vision Corporation, CA). The extent of staining was assessed on thirty random images for each experimental condition, and a visual assessment of the staining was made using a scale from 1 to 5, with 1 being the least intense and 5 being the most intense. The significance of the difference between mean values was assessed using unpaired t test.

Several values for one entry are separate records, joined by “and”; a condition that tells them apart may be missing. Equal values may be shown once.

For the compound `Oc1ccc(C=Cc2cc(O)cc(O)c2)cc1` [Resveratrol], the “Stimulation of LARGE protein” value reads like this: (0.0005% (w/w)) 2.7 (±0.88) and 2.70; (0.001% (w/w)) 2.67 (±0.55) and 2.67; (0.002% (w/w)) 3.8 (±0.93) and 3.80.

The values above are taken from patent US9745629B2, “In vitro method for screening for candidate compounds for preventing and/or attenuating ageing of the skin, and/or for hydrating the skin” (CHANEL PARFUMS BEAUTE, priority 2011, dated 2017).
